{
  "source": "ChEMBL document CHEMBL1157273",
  "about": "“Sphaeric acid, a new succinic acid derivative from a Sphaeropsis sp” (J Nat Prod, 1999)",
  "key": {"Pseudomonas aeruginosa": {"tested_on": "Pseudomonas aeruginosa", "assay": "Antimicrobial activity against Pseudomonas aeruginosa by disk diffusion assay", "format": "functional, organism-based"}, "Candida albicans": {"tested_on": "Candida albicans", "assay": "Antimicrobial activity against Candida albicans by disk diffusion assay", "format": "functional, organism-based"}, "Artemia salina": {"tested_on": "Artemia salina", "assay": "Toxicity in Artemia salina after 24 hrs", "format": "organism-based", "conditions": "in vivo"}, "Aspergillus niger": {"tested_on": "Aspergillus niger", "assay": "Antimicrobial activity against Aspergillus niger by disk diffusion assay", "format": "functional, organism-based"}, "Geotrichum candidum": {"tested_on": "Geotrichum candidum", "assay": "Antimicrobial activity against Geotrichum candidum by disk diffusion assay", "format": "functional, organism-based"}, "Fusarium oxysporum": {"tested_on": "Fusarium oxysporum", "assay": "Antimicrobial activity against Fusarium oxysporum by disk diffusion assay", "format": "functional, organism-based"}, "Escherichia coli": {"tested_on": "Escherichia coli", "assay": "Antimicrobial activity against Escherichia coli by disk diffusion assay", "format": "functional, organism-based"}},
  "note": "Calls of active or inactive are those of the source. The rule behind the calls is not given here.",
  "data": [
    {"smiles": "CCCCCCCC[C@H](C(=O)O)[C@H](C)C(=O)O", "note": "[SPHAERIC ACID]", "values": [
      {"measurement": "Activity", "setting": "Pseudomonas aeruginosa", "result": "inactive"},
      {"measurement": "Activity", "setting": "Candida albicans", "result": "inactive"},
      {"measurement": "Activity", "setting": "Artemia salina", "result": "Non-toxic"},
      {"measurement": "Activity", "setting": "Aspergillus niger", "result": "inactive"},
      {"measurement": "Activity", "setting": "Geotrichum candidum", "result": "inactive"},
      {"measurement": "Activity", "setting": "Fusarium oxysporum", "result": "inactive"},
      {"measurement": "Activity", "setting": "Escherichia coli", "result": "inactive"}
    ]}
  ]
}
